Source: patent US7314858B2, “Retrocyclins: antiviral and antimicrobial peptides” (priority 2001, dated 2008)
Entries after “also recorded” stand apart in the source; their conditions may differ. Where a SMILES comes first, the peptide text is derived from it. Bridges are numbered along the chain shown (N, C = ends).

Test system: HIV-1 strain IIIB
Experiment: HIV-1 IIIB infection of H9 cells, p24 antigen ELISA
Type: cell-based
Protocol: FIG. 1. Circular minidefensins reduce HIV-1 infection of H9 cells. HIV-I strain IIIB (MOI=10^−2) was incubated with 2.5×10^5 H9 cells in the presence or absence of 20 μg/ml RTD-1, RTD-2 or RTD-3. p24 antigen release was monitored by ELISA on days 3, 6, and 9. Assay sensitivity=10 pg/ml.
Immortalized CD4^+ H9 cells, which are permissive for infection with this strain, were maintained in RPMI supplemented with 10% heat-inactivated fetal calf serum (FCS), 10 mM HEPES, 2 mM glutamine, 100 U of penicillin/ml, and 10 μg of streptomycin/ml (R10 media). Cells (2.5×10^5/100 μl) were incubated with virus (multiplicity of infection (MOI)=10^−2) in the presence or absence of 20 μg/ml RTD-1, RTD-2 or RTD-3 for 3 hrs at 37° C./5% CO2. The cells were washed in R10 media, seeded in 48-well tissue culture plates in 1 ml R10 media, and incubated at 37° C./5% CO2 for 9 days. Aliquots of cell supernatant were removed at the specified time points and analyzed by a sensitive ELISA (DuPont NEN) that quantitates p24 antigen of HIV-1. The three circular rhesus minidefensins were similarly active, inhibiting HIV-1 by 100-1000 fold by 9 days post-inoculation (note the logarithmic scale).
Either HIV-1-permissive H9 cells were used as targets, or primary CD4^+ lymphocytes from HIV-1-seronegative donors generated from freshly purified peripheral blood mononuclear cells (PBMC) stimulated with a CD3-CD8 bispecific monoclonal antibody. After approximately 7 days, when 98% of these cells co-expressed CD3 and CD4, they were infected with HIV-1 with or without retrocyclin or other test peptide. These cells were maintained in RPMI containing 10% FCS supplemented with 2 mM glutamine, 100 U of penicillin/ml, 10 μg of streptomycin/ml, and 50 U of interleukin 2/ml (R10-50 media).
Mature retrocyclin was prepared by a three-step process.

CC[C@H](C)[C@@H]1NC(=O)CNC(=O)[C@H](CCCNC(=N)N)NC(=O)CNC(=O)[C@@H]2CSSC[C@H](NC1=O)C(=O)N[C@@H](CCCNC(=N)N)C(=O)N[C@H]1CSSC[C@H](NC(=O)[C@H](CCCNC(=N)N)NC(=O)[C@@H]3CSSC[C@H](NC(=O)[C@H]([C@@H](C)CC)NC1=O)C(=O)NCC(=O)N[C@@H](CCCNC(=N)N)C(=O)NCC(=O)N[C@@H]([C@@H](C)CC)C(=O)N3)C(=O)N[C@@H]([C@@H](C)CC)C(=O)N2 [RC-100, Retrocyclin] (cyclo(GICRCICGRGICRCICGR); disulfide 3-16, 5-14, 7-12)
concentration required for complete protection against HIV-1 infection: 10 µg/mL
inhibition of HIV-1 replication (p24) (H9 cells, IIIB (X4), peptide 10-20 μg/ml): complete suppression; also recorded: antiviral
antiviral activity (at <2 μg/ml, n=5): no significant antiviral activity
